Patent US8338472B2, “Hexahydrocyclopentyl[F]indazole carboxamides and derivatives thereof as selective glucocorticoid receptor modulators” (Merck Sharp & Dohme Corp., priority 2008, dated 2012)
Read-outs that look alike come from different tables or passages of the source.

Legend:
Glucocorticoid Receptor = molecular target: T1, Glucocorticoid Receptor (Homo sapiens, UniProt P04150); experiment: Trans-Activation Modulation of Glucocorticoid Receptor (GRAMMER), MMTV-LUC reporter gene in A549 cells; type: cell-based; conditions: for Emax: A549, A549 cells, read-out: Transactivation A549 Cells GRAMMER Emax; for Emax / Transactivation A549 Cells GRAMMER Emax: Emax relative to 300 nM dexamethasone; for EC50: inflection point, read-out: Transactivation A549 Cells GRAMMER IP; for EC50 / Transactivation A549 Cells GRAMMER Emax: A549 cells
T1 construct: These cells express large amount of the GR and are very responsive to GC treatment; endogenous in cells; host or cells: A549 cells transiently transfected with the MMTV-LUC reporter
T1 sequence (P04150 1-777): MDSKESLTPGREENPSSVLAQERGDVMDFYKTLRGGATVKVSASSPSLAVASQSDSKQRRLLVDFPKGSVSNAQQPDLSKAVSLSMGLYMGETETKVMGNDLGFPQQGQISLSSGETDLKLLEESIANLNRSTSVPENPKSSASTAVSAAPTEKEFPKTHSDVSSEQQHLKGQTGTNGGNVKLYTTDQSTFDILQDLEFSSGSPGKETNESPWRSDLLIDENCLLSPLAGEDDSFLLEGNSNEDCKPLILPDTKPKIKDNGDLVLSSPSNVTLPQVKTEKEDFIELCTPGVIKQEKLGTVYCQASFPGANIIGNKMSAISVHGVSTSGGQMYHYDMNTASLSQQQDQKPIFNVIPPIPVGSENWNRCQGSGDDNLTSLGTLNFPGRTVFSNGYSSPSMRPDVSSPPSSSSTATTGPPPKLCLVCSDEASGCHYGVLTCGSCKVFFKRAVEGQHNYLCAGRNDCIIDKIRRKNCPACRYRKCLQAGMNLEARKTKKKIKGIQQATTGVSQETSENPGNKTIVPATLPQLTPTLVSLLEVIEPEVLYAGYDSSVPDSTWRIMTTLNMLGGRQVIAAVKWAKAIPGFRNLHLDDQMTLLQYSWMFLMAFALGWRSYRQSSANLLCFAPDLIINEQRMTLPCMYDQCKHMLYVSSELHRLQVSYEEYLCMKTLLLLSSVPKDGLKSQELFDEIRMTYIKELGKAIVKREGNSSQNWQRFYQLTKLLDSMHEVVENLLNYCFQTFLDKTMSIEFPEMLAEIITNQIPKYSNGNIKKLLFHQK
Summary of the method: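 Luciferase from a transiently transfected MMTV-LUC reporter was measured after 24 h compound exposure (≤1% DMSO) in A549 or MDA-MB-453 cells. For antagonism, the decrease of 10 nM dexamethasone-induced signal was calculated. For agonism, Emax was referenced to 300 nM dexamethasone.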

human GR = molecular target: T2, human GR (Homo sapiens, UniProt P04150); experiment: Transrepression Assay (GITAR), TNFα-β-lactamase reporter gene in U937 cells; type: cell-based; conditions: for EC50: inflection point, read-out: Transrepression U937 Cells GITAR IP; for EC50 / Transrepression U937 Cells GITAR Emax: U937 cells
T2 construct: U937 cells contain an endogenous glucocorticoid receptor (GR); endogenous in cells; host or cells: U937 cells stably transfected with the TNF-alpha promoter/beta-lactamase reporter
T2 sequence (P04150 1-777): T1 sequence (P04150 1-777)
Summary of the method: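 Repression of PMA (5 ng/ml final)/LPS (100 ng/ml final)-induced TNF-α promoter activity, read as β-lactamase cleavage of CCF2-AM, in stably transfected U937 cells expressing native GR. Compound added 30-45 min before stimulation, overnight (~18 hr) 37° C; normalized to 100 nM dexamethasone (100%).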

[1] = molecular target: T3, glucocorticoid receptor (GR) (Homo sapiens, UniProt P04150); experiment: Ligand binding assay (GR BIND), 3H-dexamethasone displacement in MDA-MB-453 cell lysate
T3 sequence (P04150 1-777): T1 sequence (P04150 1-777)
Description: Binding Buffer: TEGM (10 mM Tris-HCl, 1 mM EDTA, 10% glycerol, 1 mM beta-mecaptoethanol, 10 mM Sodium Molybdate, pH 7.2)
50% HAP Slurry: Calbiochem Hydroxylapatite, Fast Flow, in 10 mM Tris, pH 8.0 and 1 mM EDTA.
Wash Buffer: 40 mM Tris, pH7.5, 100 mM KCl, 1 mM EDTA and 1 mM EGTA.
Dexmethasone-methyl-^3H, (DEX*); (Amersham cat# TRK645)
Dexamethasone(DEX) (Sigma, cat# D1756):
The cell pellet is washed twice with TEGM (10 mM Tris-HCl, 1 mM EDTA, 10% glycerol, 1 mM beta-mercaptoethanol, 10 mM Sodium Molybdate, pH 7.2). After the final wash, the cells are resuspended in TEGM at a concentration of 10^7 cells/mL. The cell suspension is snap frozen in liquid nitrogen or ethanol/dry ice bath and transferred to −80° C. freezer on dry ice. Before setting up the binding assay, the frozen samples are left on ice-water to just thaw (˜1 hr). Then the samples are centrifuged at 12,500 g to 20,000 g for 30 min at 4° C. The supernatant is used to set-up assay right away. If using 50 μL of supernatant, the test compound can be prepared in 50 μL of the TEGM buffer.
Procedure for Multiple Compound Screening
1×TEGM buffer is prepared, and the isotope-containing assay mixture is prepared in the following order: EtOH (2% final concentration in reaction), ^3H-DEX (Amersham Biosciences) and 1×TEGM. [e.g. For 100 samples, 200 μL (100×2) of EtOH+4.25 μL of 1:10 ^3H-Dex stock+2300 μL (100×23) 1×TEGM]. The compound is serially diluted, e.g., if starting final conc. is 1 μM, and the compound is in 25 μL of solution, for duplicate samples, 75 μL of 4×1 μM solution is made and 3 μL of 100 μM is added to 72 μL of buffer, and 1:5 serial dilution.
25 μL of ^3H-DEX (6 nM) trace and 25 μL compound solution are first mixed together, followed by addition of 50 μL receptor solution. The reaction is gently mixed, spun briefly at about 200 rpm and incubated at 4° C. overnight. 100 μL of 50% HAP slurry is prepared and added to the incubated reaction which is then vortexed and incubated on ice for 5 to 10 minutes. The reaction mixture is vortexed twice more to resuspend HAP while incubating reaction. The samples in 96-well format are then washed in wash buffer using The FilterMate™ Universal Harvester plate washer (Packard). The washing process transfers HAP pellet containing ligand-bound expressed receptor to Unifilter-96 GF/B filter plate (Packard). The HAP pellet on the filter plate is incubated with 50 μL of MICROSCINT (Packard) scintillint for 30 minutes before being counted on the TopCount microscintillation counter (Packard). IC50s are calculated using DEX as a reference.

[2] = GITAR Emax minus GRAMMER Emax, Table 1
[3] = U-937, U937 cells, activity repressed by 100 nM dexamethasone = 100%, Table 1, read-out: Transrepression U937 Cells GITAR Emax
[4] = U-937, text statement, 100 nM dexamethasone = 100%, read-out: maximal activity in the transrepression assay (GITAR)
[5] = activity repressed by 100 nM dexamethasone = 100%, Table 1
[6] = compounds in the art (WO03/086294)

Compound | Emax (Glucocorticoid Receptor; Table 1) [%] | EC50 (Glucocorticoid Receptor; Table 1) [nM] | GITAR Greater than by GRAMMER % SEP (human GR; [2]) [%] | Emax (human GR; [3]) [%] | Emax (human GR; [4]) [%] | EC50 (human GR; Table 1) [nM] | Ki ([1]; GR BIND Ki, Table 1) [nM] | Transactivation A549 Cells GRAMMER Emax (Glucocorticoid Receptor; Table 1) [%] | Transrepression U937 Cells GITAR Emax (human GR; [5]) [%] | Emax (Glucocorticoid Receptor; compounds in the art) [%] | EC50 (Glucocorticoid Receptor; [6]) [nM] | GITAR > GRAMM % SEP (human GR; GITAR Emax minus GRAMMER Emax, compounds in the art) [%] | Emax (human GR; U-937, U937 cells, activity repressed by 100 nM dexamethasone = 100%, compounds in the art, read-out: Transrepression U937 Cells GITAR Emax) [%] | EC50 (human GR; [6]) [nM] | Ki ([1]; GR BIND Ki, compounds in the art (WO03/086294)) [nM] | Ki ([1]; read-out: GR BIND Ki, Table 1) [nM]
CCCN(CCC(F)(F)F)C(=O)[C@H]1CCC2=Cc3c(cnn3-c3ccc(F)cc3)C[C@@]21C [Compound 88, (4αR,5S)-1-(4-fluorophenyl)-4α-methyl-N-propyl-N-(3,3,3-trifluoropropyl)-1,4,4α,5,6,7-hexahydrocyclopenta[f]indazole-5-carboxamide] | 68 | 371 | 5.9 | 73.9 | > 5 | 234 | 2.2 |  |  |  |  |  |  |  |  | 
CO[C@H](C)CN(C)C(=O)[C@H]1CCC2=Cc3c(cnn3-c3ccc(F)cc3)C[C@@]21C [Compound 89, (4αR,5S)-1-(4-fluorophenyl)-N-[(2R)-2-methoxypropyl]-N,4α-dimethyl-1,4,4α,5,6,7-hexahydrocyclopenta[f]indazole-5-carboxamide] | 3.7 | 492 | 6.5 | 10.2 | > 5 | 3450 | 120 |  |  |  |  |  |  |  |  | 
CN(CCC(F)(F)F)C(=O)[C@H]1CCC2=Cc3c(cnn3-c3ccc(F)cc3)C[C@@]21C [Compound 90, (4αR,5S)-1-(4-fluorophenyl)-N,4α-dimethyl-N-(3,3,3-trifluoropropyl)-1,4,4α,5,6,7-hexahydrocyclopenta[f]indazole-5-carboxamide] | 20.3 | 565 | 24.2 | 44.5 | > 5 | 609 | 17.3 |  |  |  |  |  |  |  |  | 
CCN(CCC(F)(F)F)C(=O)[C@H]1CCC2=Cc3c(cnn3-c3ccc(F)cc3)C[C@@]21C [Compound 91, (4αR,5S)-N-ethyl-1-(4-fluorophenyl)-4α-methyl-N-(3,3,3-trifluoropropyl)-1,4,4α,5,6,7-hexahydrocyclopenta[f]indazole-5-carboxamide] | 44.5 | 312 | 30.6 | 75.1 | > 5 | 333 | 4.5 |  |  |  |  |  |  |  |  | 
(4αR,5S)-N,N-dibutyl-1-(4-fluorophenyl)- 4α-methyl-1,4,4α,5,6,7- hexahydrocyclopenta[f]indazole-5- carboxamide [Compound 9] |  | 360 | 15.9 |  |  | 497 |  | 38.5 | 54.4 |  |  |  |  |  |  | 1

More lines, main results first:

Emax (Glucocorticoid Receptor; Table 1) [%] | EC50 (Glucocorticoid Receptor; Table 1) [nM] | GITAR Greater than by GRAMMER % SEP (human GR; [2]) [%] | Emax (human GR; [3]) [%] | Emax (human GR; [4]) [%] | EC50 (human GR; Table 1) [nM] | Ki ([1]; GR BIND Ki, Table 1) [nM] | Transactivation A549 Cells GRAMMER Emax (Glucocorticoid Receptor; Table 1) [%] | Transrepression U937 Cells GITAR Emax (human GR; [5]) [%] | Emax (Glucocorticoid Receptor; compounds in the art) [%] | EC50 (Glucocorticoid Receptor; [6]) [nM] | GITAR > GRAMM % SEP (human GR; GITAR Emax minus GRAMMER Emax, compounds in the art) [%] | Emax (human GR; U-937, U937 cells, activity repressed by 100 nM dexamethasone = 100%, compounds in the art, read-out: Transrepression U937 Cells GITAR Emax) [%] | EC50 (human GR; [6]) [nM] | Ki ([1]; GR BIND Ki, compounds in the art (WO03/086294)) [nM] | Compound | Ki ([1]; read-out: GR BIND Ki, Table 1) [nM]
 | 285 | 4.7 |  |  | 143 | 1.5 | 40.2 | 44.9 |  |  |  |  |  |  | C[C@]12Cc3cnn(-c4ccc(F)cc4)c3C=C1CC[C@@H]2C(=O)N(CCc1ccccc1F)CC(O)C(F)(F)F (stereo partly drawn) [Compound 92, (4αR,5S)-1-(4-fluorophenyl)-N-[2-(2-fluorophenyl)ethyl]-4α-methyl-N(3,3,3-trifluoro-2-hydroxypropyl)-1,4,4α,5,6,7-hexahydrocyclopenta[f]indazole-5-carboxamide] | 
 | 277 | 5.9 |  |  | 172 | 1.1 | 61.7 | 67.5 |  |  |  |  |  |  | C[C@]12Cc3cnn(-c4ccc(F)cc4)c3C=C1CC[C@@H]2C(=O)N(CCc1ccccc1F)CC(O)C(F)(F)F (stereo partly drawn) [Compound 93, (4αR,5S)-1-(4-fluorophenyl)-N-[2-(2-fluorophenyl)ethyl]-4α-methyl-N-(3,3,3-trifluoro-2-hydroxypropyl)-1,4,4α,5,6,7-hexahydrocyclopenta[f]indazole-5-carboxamide] | 
43.8 | 363 | 8.0 | 51.8 |  | 531 | 1.8 |  |  |  |  |  |  |  |  | C[C@]12Cc3cnn(-c4ccc(F)cc4)c3C=C1CC[C@@H]2C(=O)N(CCc1ccccc1F)CC(O)CC(F)(F)F (stereo partly drawn) [Compound 94, (4αR,5S)-l-(4-fluorophenyl)-N-[2-(2-fluorophenyl)ethyl]-4α-methyl-N-(4,4,4-trifluoro-2-hydroxybutyl)-1,4,4α,5,6,7-hexahydrocyclopenta[f]indazole-5-carboxamide] | 
 | 374 | 7.3 |  |  | 282 | 1 | 46.9 | 54.2 |  |  |  |  |  |  | C[C@]12Cc3cnn(-c4ccc(F)cc4)c3C=C1CC[C@@H]2C(=O)N(CCc1ccccc1F)CC(O)CC(F)(F)F (stereo partly drawn) [Compound 95, (4αR,5S)-1-(4-fluorophenyl)-N-[2-(2-fluorophenyl)ethyl]-4α-methyl-N-(4,4,4-trifluoro-2-hydroxybutyl)-1,4,4α,5,6,7-hexahydrocyclopenta[f]indazole-5-carboxamide] | 
 |  |  |  |  |  |  |  |  | 103 | 502 | -59.6 | 43.8 | 4280 | 21.1 | C[C@]12Cc3cnn(-c4ccc(F)cc4)c3C=C1CC[C@@H]2C(=O)NCc1ccccc1 [reference compound] | 
